*1 amine or outer side, *2 acyl side, *3 side chain or, on linkers, in order; H or OH if unused. Where a SMILES comes first, the peptide text is derived from it. The star is where a group is joined. pNA = O=[N+]([O-])c1ccc(N*)cc1; Suc = O=C(CCC(=O)[*:2])[*:1]
Legend:
[1] = target: Peptidyl-prolyl cis-trans isomerase A, cyclophilin A (Homo sapiens) (UniProt P62937); experiment: The compound was evaluated for its binding affinity against Human Cyclophilin hCyp-18 Peptidyl-prolyl isomerase
[2] = target: Peptidyl-prolyl cis-trans isomerase A, cyclophilin A (Homo sapiens) (UniProt P62937); experiment: Inhibitory activity against Human Cyclophilin hCyp-18 Peptidyl-prolyl isomerase by using the standard trypsin-coupled PPIase (peptidyl-prolyl isomerases) assay
[3] = target: Peptidyl-prolyl cis-trans isomerase A, cyclophilin A (Homo sapiens) (UniProt P62937); experiment: The compound was evaluated for its binding affinity against Human Cyclophilin hCyp-18 Peptidyl-prolyl isomerase; remark: listed apart in the source

Chain of Peptidyl-prolyl cis-trans isomerase A, cyclophilin A (Homo sapiens) (P62937 whole entry, looked up): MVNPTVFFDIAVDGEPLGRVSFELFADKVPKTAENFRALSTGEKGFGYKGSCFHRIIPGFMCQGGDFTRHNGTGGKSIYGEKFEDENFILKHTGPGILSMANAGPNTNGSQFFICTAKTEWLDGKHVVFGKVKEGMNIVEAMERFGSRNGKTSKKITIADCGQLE

| Structure (SMILES) | Kd [1] [µM] | IC50 [2] [µM] | Kd [3] [µM] |
| --- | --- | --- | --- |
| CC(=O)N[C@@H](C)C(=O)NCC(=O)C(=O)N1CCCC1C(=O)N[C@@H](Cc1ccccc1)C(=O)Nc1ccc([N+](=O)[O-])cc1 (some centres not stated) [1-[3-(2-Acetylamino-propionylamino)-2-oxo-propionyl]-pyrrolidine-2-carboxylic acid [1-(4-nitro-phenylcarbamoyl)-2-phenyl-ethyl]-amide] | 127 | 215 |  |
| C[C@H](NC(=O)CCC(=O)O)C(=O)N[C@@H](C)C(=O)N1CCC[C@H]1C(=O)N[C@@H](Cc1ccccc1)C(=O)Nc1ccc([N+](=O)[O-])cc1 [N-[1-(1-Methyl-2-{2-[1-(4-nitro-phenylcarbamoyl)-2-phenyl-ethylcarbamoyl]-pyrrolidin-1-yl}-2-oxo-ethylcarbamoyl)-ethyl]-succinamic acid] (Suc-AAPF-pNA) | 135 | 540 |  |
| CCOP(=O)(CNC(=O)[C@H](C)NC(=O)CCC(=O)O)N1CCCC1C(=O)N[C@@H](Cc1ccccc1)C(=O)Nc1ccc([N+](=O)[O-])cc1 (some centres not stated) [N-{1-[(Ethoxy-{2-[1-(4-nitro-phenylcarbamoyl)-2-phenyl-ethylcarbamoyl]-pyrrolidin-1-yl}-phosphinoylmethyl)-carbamoyl]-ethyl}-succinamic acid] | 20 | 15 |  |
| COC(=O)Cc1ccc(NC(=O)[C@H](Cc2ccccc2)NC(=O)C2CCCN2P(=O)(O)CNC(=O)[C@H](C)NC(C)=O)cc1 (some centres not stated) [[(2-Acetylamino-propionylamino)-methyl]-{2-[1-(4-methoxycarbonylmethyl-phenylcarbamoyl)-2-phenyl-ethylcarbamoyl]-pyrrolidin-1-yl}-phosphinic acid anion] | 79 |  |  |
| C[C@H](NC(=O)CCC(=O)O)C(=O)NCC(=O)N1CCC[C@H]1C(=O)N[C@@H](Cc1ccccc1)C(=O)Nc1ccc([N+](=O)[O-])cc1 [N-[1-(2-{2-[1-(4-Nitro-phenylcarbamoyl)-2-phenyl-ethylcarbamoyl]-pyrrolidin-1-yl}-2-oxo-ethylcarbamoyl)-ethyl]-succinamic acid] (Suc-AGPF-pNA) |  | 1450 | 140 |
| CCOP(=O)(CNC(=O)[C@H](C)NC(C)=O)N1CCCC1C(=O)N[C@H](CNc1ccc([N+](=O)[O-])cc1)Cc1ccccc1 (some centres not stated) [[(2-Acetylamino-propionylamino)-methyl]-{2-[1-benzyl-2-(4-nitro-phenylamino)-ethylcarbamoyl]-pyrrolidin-1-yl}-phosphinic acid ethyl ester] | 200 |  |  |
| CC(=O)N[C@@H](C)C(=O)N[C@@H](C)C(=O)N1CCC[C@H]1C(=O)N[C@@H](Cc1ccccc1)C(=O)Nc1ccc([N+](=O)[O-])cc1 [1-[2-(2-Acetylamino-propionylamino)-propionyl]-pyrrolidine-2-carboxylic acid [1-(4-nitro-phenylcarbamoyl)-2-phenyl-ethyl]-amide] (Ac-AAPF-pNA) | 145 | 640 |  |
